Measurements as given in patent US9808477B2 (Macau University of Science and Technology, priority 2015, dated 2017).
Where two headings read alike, the source gives them in different places.

Columns and labels:
in vitro [1] = assay type: cell-based; conditions: human
Experimental: (§1) Sulphorhodamine B (SRB) assays were used for cell density determination, based on sensitive measure of total cellular protein, which perform similarly compared with other proliferation assays such as MTT assay. Briefly, cells were seeded into flat bottomed 96-well plates at an initial density of 7.5×10^3 per well before treatment. […] After removing the medium, cells were fixed in 10% trichloroacetic acid for 1 h at 4° C. and then washed with water five times. 0.4% SRB dissolved in 1% v/v acetic acid was added and incubated […] for staining. The cells were quickly washed with 1% acetic acid and left to dry overnight. The protein bound SRB was solubilized by adding 200 μl 10 mM Tris buffer per well and was measured at wavelengths 490 nm using a plate reader (Spectra MAX 250; Molecular Devices, Sunnyvale, Calif.). The optical density of SRB in each well is directly proportional to the cell number.

Caco-2 cells = conditions: nobiletin 20 μM; cited from earlier work
[2] = tested on: A2780/T cells (PTX-resistant, ABCB1-overexpressing ovarian cancer cells); experiment: cells; assay type: cell-based, human; conditions: Homo sapiens, A2780, 48 h, A2780/T, 48 h, SRB, drug alone (no nobiletin); read-out: IC50 ± SD
Experimental: as §1

A2780/T cells [3] = experiment: Intracellular accumulation of doxorubicin and Flutax-2; assay type: cell-based, human; conditions: 8 h, 4.5 μM nobiletin or 20 μM QND
in vitro [4] = assay type: cell-based; conditions: human; remark: listed apart in the source
Experimental: as §1

[5] = rats, single administration 50 mg/kg by gavage; cited from earlier work
A2780/T cells [6] = experiment: Cell cycle analysis (PI, flow cytometry); assay type: cell-based, human
Experimental: A2780/T cells were harvested 24 hours, 48 hours, or 72 hours after treatment and washed twice with ice-cold PBS. The cells were fixed and permeabilized with 70% ice-cold ethanol overnight at 4° C. or 2 h at −20° C. After one additional wash in PBS, cells were stained with a staining solution containing propidium iodide (PI) ([…]) and RNase A (250 μg/ml) for 30 min at room temperature. They were then pelleted, washed and suspended in PBS to a final concentration of 1×10^6/ml and analyzed by flow cytometry BD FACS Aria (BD Biosciences, San Jose, Calif.).

A2780/T cells [7] = experiment: Apoptosis analysis by Annexin-V/PI double staining; assay type: cell-based, human
Experimental: After treatment, 1×10^6 cells were collected, washed and suspended in 100 μl of binding buffer (10 mM N-2-hydroxyethylpiperazine-N,-2-ethanesulfonic acid/NaOH, 140 mM NaCl, 2.5 mM CaCl2, pH 7.4). Apoptotic cells were identified by double supravital staining with 5 μl recombinant FITC (fluorescein isothiocyanate)-conjugated Annexin-V and 5 μl PI (50 μg/ml). The cells were stained for […] at room temperature in the dark, and analyzed by fluorescence-activated cell sorting cater-plus flow cytometry. Data acquisition and analysis were performed in BD FACS Aria with FlowJo software.

A2780 cells = experiment: Intracellular accumulation of doxorubicin and Flutax-2; assay type: cell-based, human; conditions: parental A2780, nobiletin 4.5 μM
Experimental: A2780 or A2780/T cells (5×10^6) were cultured on the cover glass (ISO LAB 20×20 mm). […] After treatment, cells were fixed in 4 wt % formaldehyde (Sigma-Aldrich). Nuclear DNA was stained with 1 μg/mL blue-fluorescent DAPI (1 mg/mL in H2O stock solution; Invitrogen D1306). One drop of fluorescent preservation solution (fluorsave reagent, CALBIOCHEM) was added before observation. Imaging was carried out for comparing the intracellular accumulation of DOX and flutax-2 with a Fluorescence Microscopy (Leica DM2500, Leica, Germany).
Cells were detached, re-suspended in 500 μl of PBS after washed twice with cold PBS, and analyzed by flow cytometry (BD FACS Aria, BD Biosciences, San Jose, Calif.). Excitation and emission wavelengths (nm) used for DOX and flutax-2 were as follows: 480 to 585; and 496 to 524.

[8] = healthy subjects, single dose of Sytrinol (1053 mg total polymethoxylated flavones); cited from earlier work
A2780/T cells [9] = experiment: Colony formation assay; assay type: cell-based, human; conditions: 12 days
Text: The A2780/T cells were trypsinized and plated in fresh culture medium at a density of 600 cells/9.6 cm^2 plate. Subsequently, the cells were fixed with 70% ethanol and stained with crystal violet (0.5% in ethanol). The plates were rinsed with phosphate buffered saline (PBS), and the colony numbers were counted using the software of Quantity one-Colony counting.

A2780/T cells [10] = experiment: Combination index, Chou-Talalay method (CalcuSyn); assay type: cell-based, human
[11] = tested on: P-gp, p53, AKT/ERK, Nrf2 in A2780/T cells; experiment: Western blot analysis; assay type: cell-based, human
Experimental: The total cellular samples were harvested and rinsed twice with ice-cold PBS buffer. Cell extracts were lysed in RIPA buffer (50 mM Tris (pH 7.4), 150 mM NaCl, 1% Triton X-100, 1% sodium deoxycholate, 0.1% SDS, sodium orthovanadate, sodium fluoride and EDTA) containing protease inhibitor cocktails (Roche Life Science, USA). Protein concentration was determined using the BCA protein assay kit. Equal amounts of cell lysates were resolved by SDS-PAGE and subsequently electrophoretically transferred onto PVDF membranes (Millipore, Darmstadt, Germany). After blocking in tris-buffered saline containing 0.1% of Tween20 (TBST) with 5% (w/v) skim milk (Nestle Carnation, New Zealand) for 2 h at room temperature, the membranes were incubated with primary and secondary antibodies and subsequently visualized with an enhanced chemiluminescence detection kit (Thermo Scientific™ SuperSignal™ West Pico Chemiluminescent Substrate, USA). β-Actin was used as the loading control for the experimental data analysis.

[12] = nobiletin 9 μM in combination with 0.94 μM PTX
[13] = 9 μM nobiletin alone or 0.94 μM PTX alone

COc1ccc(-c2cc(=O)c3c(OC)c(OC)c(OC)c(OC)c3o2)cc1OC [nobiletin]
viability at 9 µM (in vitro [1]): > 90%
increase of uptake of [3H] vinblastine (Caco-2 cells): 3 fold
IC50 [2]: 31.6 µM
intracellular accumulation of DOX (A2780/T cells [3]; 5 μM DOX): higher than that in untreated A2780/T
intracellular accumulation of Flutax-2 (A2780/T cells [3]; Flutax-2 1 μM): higher than that in untreated A2780/T
viability at 9 µM (in vitro [4]): > 90%
peak plasma level [5]: ~22.5 µM
effect on the cell cycle (A2780/T cells [6]; nobiletin 9 μM alone): no effect
G1 phase cells (A2780/T cells [6]; [12]): 9.6%
G2 phase cells (A2780/T cells [6]; [12]): 75.77%
apoptosis induction, single treatment (A2780/T cells [7]; [13]): did not show apoptosis induction
apoptosis induced by 0.94 μM PTX (annexin V-FITC positive) (A2780/T cells [7]; 0.5, 1.5, 4.5 and 9 μM nobiletin + 0.94 μM PTX, 48 h): significantly increase apoptosis
DOX and Flutax-2 levels (A2780 cells): no effect
peak plasma level [8]: ~2.5 µM
inhibition of colony formation, single agent (A2780/T cells [9]; [13]): no inhibition
inhibition of colony formation, combination (A2780/T cells [9]; different concentrations of nobiletin with 0.94 μM PTX): Complete inhibition
EC50 (A2780/T cells [10]; Homo sapiens, A2780, read-out: Dose N at Fa = 0.5 (ED50), CalcuSyn simulation, A2780/T, nobiletin dose, alone or in the combination): 36 µM
decrease of the ED50 dose of PTX (A2780/T cells [10]; combination with 0.286 μM nobiletin, A2780/T): 200 fold
phosphorylated AKT/ERK level ([11]; 50 μM nobiletin): significant decrease
phosphorylated AKT and ERK ([11]; PTX and nobiletin, 48 h): significant inhibitory effect
p53 level ([11]; PTX in combination with nobiletin): accumulation of p53
expression of total and phosphorylated AKT and ERK ([11]; nobiletin alone at reversal concentrations): no effect
protein level of ABCB1 ([11]; nobiletin at concentrations used in reversal assays, 48 h): did not significantly alter
protein level of Nrf2 ([11]; nobiletin in combination with 0.94 μM PTX, dose-dependent): reduced
